Test results from patent US11708346B2, “Treatment and prevention of neuropathic pain with P2Y14 antagonists” (Saint Louis University, priority 2019, dated 2023).
Where “and” joins values, the source holds several entries; their conditions need not be identical. Equal entries are not always repeated. Entries after “also recorded” stand apart in the source; their conditions may differ.

Experiments:
[1] = molecular target: T1, hP2Y14R (Homo sapiens, UniProt Q15391); test: Competitive fluorescent binding assay in whole CHO-hP2Y14R cells, tracer 20, flow cytometry; details: read-out: Human P2Y14R binding affinity (IC50)
T1 construct: expressed in transfected cells; host or cells: CHO
T1 sequence (Q15391 1-338): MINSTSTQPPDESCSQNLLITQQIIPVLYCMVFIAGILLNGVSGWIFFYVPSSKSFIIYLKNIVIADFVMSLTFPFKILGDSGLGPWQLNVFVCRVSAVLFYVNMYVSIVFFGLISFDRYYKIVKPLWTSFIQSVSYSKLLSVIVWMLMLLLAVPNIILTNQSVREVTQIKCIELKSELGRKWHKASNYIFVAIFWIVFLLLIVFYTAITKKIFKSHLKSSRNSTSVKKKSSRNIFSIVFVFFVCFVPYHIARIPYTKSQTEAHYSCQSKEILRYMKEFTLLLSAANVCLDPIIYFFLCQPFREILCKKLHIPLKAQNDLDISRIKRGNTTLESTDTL

[2] = molecular target: T2, mP2Y14R (Mus musculus, UniProt Q9ESG6); details: read-out: Mouse P2Y14R binding affinity (IC50); mP2Y14R in HEK293 cells, tracer 20
T2 sequence (Q9ESG6 1-338): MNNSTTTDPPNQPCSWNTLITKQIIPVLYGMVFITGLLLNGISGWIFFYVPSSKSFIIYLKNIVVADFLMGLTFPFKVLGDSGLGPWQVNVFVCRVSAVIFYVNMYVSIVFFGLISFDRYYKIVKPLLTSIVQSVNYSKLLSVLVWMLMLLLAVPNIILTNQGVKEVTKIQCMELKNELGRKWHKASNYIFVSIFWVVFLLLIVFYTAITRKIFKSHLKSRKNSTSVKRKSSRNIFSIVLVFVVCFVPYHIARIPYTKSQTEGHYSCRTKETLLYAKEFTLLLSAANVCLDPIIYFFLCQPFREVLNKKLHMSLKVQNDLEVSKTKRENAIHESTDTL

[3] = system: CCI-induced mechano-allodynia; test: Chronic constriction injury (CCI) of the sciatic nerve, mechano-allodynia by von Frey filaments; format: in vivo, mouse; details: for Effect at 0.5 h (% ± SD), percent inhibition of mechano-allodynia / Effect at 1 h (% + SD), percent inhibition of mechano-allodynia / Effect at 2 h (% ± SD), percent inhibition of mechano-allodynia / Effect at 3 h (% ± SD), percent inhibition of mechano-allodynia / Effect at 5 h (% ± SD), percent inhibition of mechano-allodynia / Reversal of CCI-induced mechano-allodynia / ED50: day 7 post-CCI; for Effect at 0.5 h (% ± SD), percent inhibition of mechano-allodynia / Effect at 1 h (% + SD), percent inhibition of mechano-allodynia / Effect at 2 h (% ± SD), percent inhibition of mechano-allodynia / Effect at 3 h (% ± SD), percent inhibition of mechano-allodynia / Effect at 5 h (% ± SD), percent inhibition of mechano-allodynia: n = 3; for Reversal of CCI-induced mechano-allodynia: ipsilateral hind paw; for ED50: Mus musculus, ip, read-out: ED50 at 1 h (95% CI), reversal of mechano-allodynia, 1 h post drug
Protocol: Chronic constriction injury (CCI) to the sciatic nerve was performed using the Bennett model. […] Then the animals were placed on a sterile surgical field and the skin was wiped with topical antiseptic, Dermachlor solution (0.2% chlorhexidine gluconate). […] A small incision was created on the lateral side of the left hind limb parallel to the femur. The sciatic nerve was exposed and ligated on two sites about 1 mm apart above the trifurcation using silk sutures 6.0. The incision was closed with clips and lidocaine cream was applied.
Mice were acclimated to the testing mesh-rack for 30 min before behavioral measurements. All behavioral testing was performed in the morning. The baseline measurements were determined on day 0 before CCI procedure. On day 7 post-CCI, baseline behavior responses were assessed, beginning prior to drug administration. Following drug injection, the behaviors were evaluated at multiple time points. Mechano-allodynia was quantified according to the hind paw withdrawal response to von Frey filaments stimulation by the Dixon up-and-down method. […] In presence of a positive withdrawal response a lighter filament was applied. If a negative response occurred, a stronger filament was used. At least four readings are obtained after the first positive response and the pattern of response was converted to a 50% paw withdrawal threshold (PWT), using the method described by Chaplan et al., J. Neurosci.
Data are expressed as mean±SD and analyzed by two-tailed, two-way repeated measures ANOVA with Dunnett's post hoc comparisons to day 7 behavior. The percentage of reversal of peak CCI-induced pain afforded by each drug was calculated for each animal using their baseline and day 7 post CCI behavioral measures. % Reversal=(PWT(g)t−PWT(g)day7)/PWT(g)day0−PWT(g)day7)×100, where PWT(g)=paw withdrawal threshold, t=time after drug. […] All statistical analyses were performed using GraphPad Prism 8 (Graph Pad Inc., San Diego, Calif.). Significance was accepted at p<0.05.

[4] = molecular target: 5HT1D (Homo sapiens, UniProt P28221); test: PDSP off-target binding; details: ± SEM
[5] = molecular target: T3, CB1 cannabinoid receptor (Homo sapiens, UniProt P21554); test: PRESTO-Tango agonist/antagonist assay; format: cell-based
T3 construct: expressed in transfected cells
Protocol: (§1) Synthesis of 7 was performed using a Sonogashira reaction (11 to 12), click reaction (13 to 14) and a Suzuki reaction (15 to 16) followed by two-step deprotection. […].

[6] = molecular target: T4, CB2 cannabinoid receptor (Homo sapiens, UniProt P34972); test: PRESTO-Tango agonist/antagonist assay; format: cell-based
T4 construct: expressed in transfected cells
Protocol: as §1

Chain of 5HT1D (P28221 whole entry, species assumed): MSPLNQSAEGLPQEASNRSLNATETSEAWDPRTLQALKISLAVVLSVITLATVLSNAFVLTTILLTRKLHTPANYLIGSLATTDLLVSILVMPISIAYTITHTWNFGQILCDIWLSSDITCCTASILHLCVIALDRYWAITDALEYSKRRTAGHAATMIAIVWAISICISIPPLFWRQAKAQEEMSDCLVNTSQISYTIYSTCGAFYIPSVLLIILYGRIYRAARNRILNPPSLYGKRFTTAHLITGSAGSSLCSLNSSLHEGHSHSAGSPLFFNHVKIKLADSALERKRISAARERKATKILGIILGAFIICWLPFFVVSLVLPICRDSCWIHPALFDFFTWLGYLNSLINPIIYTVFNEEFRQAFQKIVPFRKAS
T3 sequence (P21554 whole entry): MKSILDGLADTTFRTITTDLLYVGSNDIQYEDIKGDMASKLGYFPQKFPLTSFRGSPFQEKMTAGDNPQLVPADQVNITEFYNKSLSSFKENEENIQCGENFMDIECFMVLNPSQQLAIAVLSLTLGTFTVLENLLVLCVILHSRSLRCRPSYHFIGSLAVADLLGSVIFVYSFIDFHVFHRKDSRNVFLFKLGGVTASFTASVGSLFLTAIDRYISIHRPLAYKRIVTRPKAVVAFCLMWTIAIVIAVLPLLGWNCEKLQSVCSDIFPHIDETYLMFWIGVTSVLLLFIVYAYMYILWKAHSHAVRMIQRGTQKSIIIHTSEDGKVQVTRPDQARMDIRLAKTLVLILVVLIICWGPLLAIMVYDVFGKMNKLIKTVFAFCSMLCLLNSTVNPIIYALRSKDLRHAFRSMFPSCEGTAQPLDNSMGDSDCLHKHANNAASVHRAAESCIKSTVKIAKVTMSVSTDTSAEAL
T4 sequence (P34972 whole entry): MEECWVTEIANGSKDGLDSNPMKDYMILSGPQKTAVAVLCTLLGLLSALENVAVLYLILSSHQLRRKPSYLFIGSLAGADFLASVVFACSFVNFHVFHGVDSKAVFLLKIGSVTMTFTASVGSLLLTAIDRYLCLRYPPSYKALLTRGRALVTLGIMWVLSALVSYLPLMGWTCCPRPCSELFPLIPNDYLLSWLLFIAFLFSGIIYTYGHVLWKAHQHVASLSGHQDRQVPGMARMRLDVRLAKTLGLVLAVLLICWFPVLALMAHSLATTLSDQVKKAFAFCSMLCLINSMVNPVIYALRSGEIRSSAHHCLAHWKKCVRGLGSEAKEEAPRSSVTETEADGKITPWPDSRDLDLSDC

SMILES	IC50 [1] [nM]	IC50 [2] [nM]	Effect at 0.5 h (% ± SD), percent inhibition of mechano-allodynia ([3]; 10 μmol/kg, i.p.) [%]	Effect at 1 h (% + SD), percent inhibition of mechano-allodynia ([3]; 10 μmol/kg, i.p.)	Effect at 2 h (% ± SD), percent inhibition of mechano-allodynia ([3]; 10 μmol/kg, i.p.) [%]	Effect at 3 h (% ± SD), percent inhibition of mechano-allodynia ([3]; 10 μmol/kg, i.p.) [%]	Effect at 5 h (% ± SD), percent inhibition of mechano-allodynia ([3]; 10 μmol/kg, i.p.) [%]	Reversal of CCI-induced mechano-allodynia ([3]; 10 μmol/kg, i.p.)	also measured
CCC(=O)N1CCC(c2ccc(-c3cc(C(=O)O)cc4cc(-c5ccc(C(F)(F)F)cc5)ccc34)cc2)CC1 [Compound 5, 4-(4-(1-(Propionyl)piperidin-4-yl)phenyl)-7-(4-(trifluoromethyl)phenyl)-2-naphthoic acid]	41.8 ± 1.8	38	32.9 ± 5.7	77.2 ± 26.1%	71.6 ± 19.8	55.7 ± 27.1	5.6 ± 6.4	–	–
NCCOCCOCCOCCOCCOCCOCCC(=O)N1CCC(c2ccc(-c3cc(C(=O)O)cc4cc(-c5ccc(C(F)(F)F)cc5)ccc34)cc2)CC1 [Compound 21]	–	–	–	–	–	–	–	fully efficacious	Time of peak protection ([3]; 10 μmol/kg i.p., after injection): 1 to 2 h; Effect on paw withdrawal threshold at the contralateral hind paw ([3]; 10 μmol/kg, i.p., versus vehicle control): No effect
NCCCNC(=O)c1ccc(-c2cc(C(=O)O)cc(-n3cc(-c4ccc(C(F)(F)F)cc4)nn3)c2)s1 [Compound 8]	169 ± 42	384	81.0 ± 6.9	91.5 ± 7.4%	74.0 ± 28.5	30.9 ± 21.0	10.0 ± 17.3	–	Ki [4]: 6700 nM; Emax, in vivo efficacy ([3]; 10 μmol/kg i.p.): 91.5%
O=C(O)c1cc(-c2ccc(C3CCNCC3)cc2)c2ccc(-c3ccc(C(F)(F)F)cc3)cc2c1 [Compound 1, 4-[4-(piperidin-4-yl)phenyl]-7-[4-(rifluoromethyl)phenyl]-2-naphthoic acid]	–	–	87.9 ± 12.9	100% and 100 ± 0.0%	96.4 ± 6.2	78.6 ± 9.4	21.3 ± 14.1	fully efficacious; also recorded: reversed the allodynia	IC50 [5]: > 50000 nM; IC50 [6]: > 50000 nM; Effect at 0.5 h (% ± SD), percent inhibition of mechano-allodynia ([3]; 1 μmol/kg, i.p.): 10.0 ± 17.3%; Effect at 1 h (% + SD), percent inhibition of mechano-allodynia ([3]; 1 μmol/kg, i.p.): 19.9 ± 17.3%; Effect at 2 h (% ± SD), percent inhibition of mechano-allodynia ([3]; 1 μmol/kg, i.p.): 10.0 ± 17.3%; Effect at 3 h (% ± SD), percent inhibition of mechano-allodynia ([3]; 1 μmol/kg, i.p.): 4.7 ± 8.2%; Effect at 5 h (% ± SD), percent inhibition of mechano-allodynia ([3]; 1 μmol/kg, i.p.): 4.7 ± 8.2%; Effect at 0.5 h (% ± SD), percent inhibition of mechano-allodynia ([3]; 3 μmol/kg, i.p.): 62.9 ± 18.7%; Effect at 1 h (% + SD), percent inhibition of mechano-allodynia ([3]; 3 μmol/kg, i.p.): 79.3 ± 2.2%; Effect at 2 h (% ± SD), percent inhibition of mechano-allodynia ([3]; 3 μmol/kg, i.p.): 76.9 ± 6.3%; Effect at 3 h (% ± SD), percent inhibition of mechano-allodynia ([3]; 3 μmol/kg, i.p.): 64.7 ± 17.2%; Effect at 5 h (% ± SD), percent inhibition of mechano-allodynia ([3]; 3 μmol/kg, i.p.): 8.7 ± 15.1%; ED50 ([3]; i.p.): 1.6 µmol/kg
O=C(O)c1cc(O)c2ccc(-c3ccc(C(F)(F)F)cc3)cc2c1 [Compound 2]	3200 ± 640	1600 ± 250	23.4 ± 21.2	64.2 ± 24.9%	59.8 ± 18.1	35.2 ± 22.2	0.0 ± 0.0	reversed the allodynia	–
C#CCCCCN1CCC(c2ccc(-c3cc(C(=O)O)cc4cc(-c5ccc(C(F)(F)F)cc5)ccc34)cc2)CC1 [Compound 3]	76.3 ± 24.4	130 ± 30	52.4 ± 23.3	75.9 ± 15.0%	42.7 ± 9.6	9.6 ± 16.7	0.0 ± 0.0	–	Ratio of protection at 3 h divided by the protection at 5 h (duration of action) ([3]; 10 μmol/kg i.p.): 0.13
O=C(O)c1cc(-c2ccc(C3CCNCC3)cc2)cc(-n2cc(-c3ccc(C(F)(F)F)cc3)nn2)c1 [Compound 6]	–	–	52.4 ± 9.6	67.4 ± 7.0%	57.2 ± 13.3	31.9 ± 16.8	12.7 ± 13.2	–	Effect at 0.5 h (% ± SD), percent inhibition of mechano-allodynia ([3]; 1 μmol/kg, i.p.): 8.7 ± 15.1%; Effect at 1 h (% + SD), percent inhibition of mechano-allodynia ([3]; 1 μmol/kg, i.p.): 18.7 ± 21.3%; Effect at 2 h (% ± SD), percent inhibition of mechano-allodynia ([3]; 1 μmol/kg, i.p.): 18.7 ± 21.3%; Effect at 3 h (% ± SD), percent inhibition of mechano-allodynia ([3]; 1 μmol/kg, i.p.): 8.7 ± 7.6%; Effect at 5 h (% ± SD), percent inhibition of mechano-allodynia ([3]; 1 μmol/kg, i.p.): 8.7 ± 15.1%; Effect at 0.5 h (% ± SD), percent inhibition of mechano-allodynia ([3]; 3 μmol/kg, i.p.): 44.6 ± 16.6%; Effect at 1 h (% + SD), percent inhibition of mechano-allodynia ([3]; 3 μmol/kg, i.p.): 53.3 ± 24.2%; Effect at 2 h (% ± SD), percent inhibition of mechano-allodynia ([3]; 3 μmol/kg, i.p.): 44.6 ± 16.6%; Effect at 3 h (% ± SD), percent inhibition of mechano-allodynia ([3]; 3 μmol/kg, i.p.): 35.6 ± 11.7%; Effect at 5 h (% ± SD), percent inhibition of mechano-allodynia ([3]; 3 μmol/kg, i.p.): 0.0 ± 0.0%; In vivo efficacy compared with a comparator compound ([3]; 10 μmol/kg i.p., 6 vs 7, 4 vs 1): no statistical difference; ED50 ([3]; i.p.): 3.5 µmol/kg
